Reference: paper PMC7771853, “Differential effects of novel kappa opioid receptor antagonists on dopamine neurons using acute brain slice electrophysiology” (PLoS ONE, 2020)

Assays:
[1] = tested on: VTA neurons; test: Wash in of antagonist: change in Iholding in VTA neurons; type: cell-based, rat; settings: for change in Iholding on wash in: across the concentrations tested
[2] = tested on: KOR; design: method as in PMID 21832171; settings: cited from earlier work

For `CC(C)CNCc1ccc(-c2ccccc2S(=O)(=O)N2CCCC2)cc1` [PF-04455242, 2-methyl-N-((2'-(pyrrolidin-1-ylsulfonyl)biphenyl-4-yl)methyl)propan-1-amine], the “neurons with outward current independent of KOR activation” value ([1]; 1 μM antagonist) is listed as 3/8, the “extracellular signal-regulated kinase (ERK) phosphorylation” value ([2]; HEK293 cells expressing KOR ref 21) is listed as “did not generate” and the “c-Jun N terminal kinase (JNK) phosphorylation” value ([2]; HEK293 cells expressing KOR, compared to other KOR antagonists ref 21) is listed as “minimal”.

With `Cc1cc(C)cc([C@@H]2CCCN2Cc2ccc(Oc3ccc(C(N)=O)cc3F)cc2)c1` [JNJ-67953964, (S)-3-fluoro-4-(4-((2-(3,5-dimethylphenyl)pyrrolidin-1-yl)methyl)phenoxy)benzamide] the “neurons with possible inward current on wash in” value ([1]; 10 nM antagonist) was 3 of 13.

With `CCc1cc(F)c2nc(N3CCC(NC4CCOCC4)CC3)c(-c3nc(C)no3)c(C)c2c1` [BTRX-335140, 1-(6-ethyl-8-fluoro-4-methyl-3-(3-methyl-1,2,4-oxadiazol-5-yl)quinolin-2-yl)-N-(tetrahydro-2H-pyran-4-yl)piperidin-4 amine] the “change in Iholding on wash in” value [1] was “means very close to zero”.

For `CCc1ccc2nc(N3CCC(NCC4(C)COC4)CC3)c(-c3nc(C)no3)cc2c1` [BTRX-395750], the “change in Iholding on wash in” value [1] was “means very close to zero”.
